Reference: US20190192622A1, “Use of Antisecretory Factor (AF) in Glioblastoma Treatment” (LANTMÄNNEN AS-FAKTOR AB, priority 2012, published 2019)
Where a SMILES comes first, the peptide text is derived from it.

Key:
[1] = system: RG2, clone N32 glioblastoma in the right brain hemisphere; assay: Intracranial pressure in rats with implanted RG2-N32 glioblastoma after nasal peptide; format: in vivo, Fisher 344 rats
Excerpt: (§1) Adult male Fisher 344 rats were purchased from Charles River, Germany. The body weight at the time for the experiments was 230-250 g. The animals had water and pelleted feed ad libitum. Permission to the experiments was granted by the Regional Animal Experiments Ethical Committee, and national and EU rules were followed.
Cultured cells of the established glioma cell line RG2, clone N32, were stereotactically deposited in the right striatum of the brain of adult Fisher 344 rats (A. T. Aas, A Brun, C. Blennow, S. Strömblad and L. G. Salford (1995). The RG2 glioma model. J. Neuro-Oncology 23, 175-183; R. F. Barth and B. Kauer ([…]). Rat brain tumor models in experimental neuro-oncology: the C6, 9L, T9, RG2, F98, BT4C, RT-2 and CNS-1 gliomas. (J Neuro-Oncology 94, 299-312). After 18-22 days, a tumor, fulfilling established criteria for glioblastoma, was demonstrable in the right hemisphere, invading adjacent brain parenchyma (FIGS. 1, 2). […] FIG. 4 is showing the implantation of pressure sensors (Samba 3200; Samba Sensors A B, V. Frölunda, Sweden), one in each hemisphere. The intracranial pressure was measured to be in the range of 25-50 mm Hg (FIG. 4), that means strikingly elevated as compared to normally 5.3±2.1 mm Hg (H.-A. Hansson, M. Al-Olama, E. Jennische, K. Gatzinsky and S. Lange (2012). The peptide AF-16 and the AF protein counteract intracranial hypertension. Acta Neurochir. Suppl. 114, 377-382). Eventually, the intracranial pressure exceed 50-60 mm Hg, resulting in herniation of the brain, dislocations and impaired blood circulation, and death (FIG. 5).
The intracranial pressure was raised both in the tumor affected right side and in the contralateral left side, and the pressure dropped to the same extent in either brain hemisphere. Concomitantly, any demonstrable neurological impairment resolved.
Cultured cells of the established glioma cell line RG2, clone N32, were stereotactically deposited in the right striatum of the brain of adult Fisher 344 rats as described in
After 18-22 days a tumor, fulfilling established criteria for glioblastoma, was demonstrable in the right hemisphere, invading adjacent brain parenchyma.
A single dose of the peptide AF-6 (1-2 mg/kg body weight, dissolved in water) was instilled in the nose of a Fisher rat with an experimental glioblastoma tumor of the RG2-N32 origin at day 21 after implantation. About 15 min later the intracranial pressure started to dropped from 25-27 mm Hg to 17.7 mm Hg (FIG. 7).

[2] = system: GL261 glioma tumor in the right brain hemisphere; assay: Intracranial / interstitial fluid pressure in mice with GL261 glioma after nasal peptide; format: in vivo, C57/BI/6 mice
Excerpt: Adult C57/BI/6 mice were purchased from B & K, Sollentuna, Sweden. The body weight was 23 g and the animals had water and pelleted feed ad libitum. Permission to the experiments was granted by the Regional Animal Experiments Ethical Committee, and national and EU rules were followed.
The GL261 mouse glioma cell line was of C57/BI/6 origin and cultured in the Rausing laboratory, BMC, Lund University, according to an established protocol (K. Enell Smith, S. Fritzell, W. Badn, S. Eberstål, S. Janelidze, E. Visse, A. Darabi and P. Siesjö (2008). Cure of established GL261 mouse gliomas after combined immunotherapy with GM-CSF and IFNγ is mediated by both CD8^+ and CD4^+ T-cells. Int. J. Cancer 124, 630-637).
C57/BI/6 mice had each 5.000 GL261 glioma cells in 5 μL tissue culture medium stereo tactically deposited in deep brain structure in the right brain hemisphere. An expanding tumor was formed and had 22 days later a diameter of 3-5 mm.
The six AA peptide AF-6 (SEQ ID NO:2) (manufactured by solid phase synthesis by K J Ross-Petersen ApS, Copenhagen, with >95% purity and TFA as counter ion) was selected to be investigated for its ability to reduce the increased intracranial pressure (ICP) inevitably evolving at this stage of tumor development.
A mouse with a GL261 tumor in the right brain hemisphere was anaesthetized with isofluran and positioned in a stereotactic holder. […]

[3] = system: experimentally induced glioblastoma tumor cell nuclei; assay: Uptake and binding of doxorubicin to tumor cell nuclei in mice with experimentally induced glioblastoma; format: in vivo; settings: additional experiments
[4] = system: RG2, clone N32 glioblastoma tumor cell nuclei; assay: Uptake of tracer doxorubicin into glioblastoma cell nuclei of rats (fluorescence microscopy); format: in vivo, Fisher 344 rats
Excerpt: The aim of this experiment was to investigate if treatment with AF-16 increased the penetration of a marker through the tumor cells membrane and subsequent entrance and distribution in their nuclei. Doxorubicin was selected as a tracer for the reason that it is an established cytotoxic drug with a molecular mass of 543.52 g/mol, i.e. being considered as a fairly low molecular mass substance. Further, doxorubicin has a red color and when exposed to light emits a red fluorescence. Doxorubicin is strongly intercalating with the DNA in cell nuclei. This means that if a red fluorescence is observed in a cell nucleus the marker has been reached its target, the tumor cells. It is known that glioblastoma cells, in humans as in animals, prevent the entrance of chemotherapeutic substances into the tumor cells, and consequently no beneficial effects are attained. The most important barrier to the drug is prevailing at the surface of the tumor cells.
as §1
Cultured cells of the established glioma cell line RG2, clone N32, were stereotactically deposited in the right striatum of the brain of adult Fisher 344 rats as described in Example 1. After 20 days a tumor, fulfilling established criteria for being a glioblastoma, was present in the right brain hemisphere of either rat.
AF-16, 1 mg per kg body weight, dissolved in water and administrated as a single dose in a volume of 10 μL, was instilled in the nostrils of anaesthetized Fisher rats. […] Cryostat microtome sections were prepared of the brains, and examined with the aid of fluorescence microscope.
That means that very few doxorubicin molecules entered the tumor cells.

[5] = single nasal instillation 1-4 mg/kg body weight
[6] = AF-16 1 mg per kg body weight nasally, 1 h before i.v. doxorubicin 10 mg per kg, sacrificed 30 min later
[7] = AF-16 4 mg/kg bw nasally 1 h prior to i.v. doxorubicin 10 mg/kg bw, brains removed 30 min later

| Compound | side effects ([1]; single nasal dose 1-2 mg/kg body weight) | side effects ([2]; nasal 5 mg per kg body weight) | effect on raised intracranial pressure (summary statement) ([1]; animals with experimentally induced glioblastoma, tumor and contralateral hemisphere) | start of intracranial pressure decrease after nasal administration ([1]; nasal AF-16 4 mg/kg bw) | intracranial pressure attained ([1]; nasal AF-16 4 mg/kg bw, in half an hour, either brain hemisphere) [mm Hg] | duration of the beneficial effects on intracranial pressure [1, 5] [h] | time to reduction of the high intracranial pressure [1, 5] [min] | intracranial pressure after reduction (acceptable level) ([1]; single nasal instillation 1-4 mg/kg body weight in 10 μL water, baseline 25-50 mm Hg, both hemispheres) [mm Hg] | demonstrable neurological impairment ([1]; single nasal instillation 1-4 mg/kg body weight, concomitant with pressure drop) | effect on uptake and binding of doxorubicin to tumor cell nuclei [3] | doxorubicin staining of the tumor cell nuclei [4, 6] | proportion of tumor cells labeled by doxorubicin [4, 6] | frequency of doxorubicin-stained tumor cell nuclei vs vehicle pretreatment [4, 7] | intensity of doxorubicin staining of tumor cell nuclei vs vehicle pretreatment [4, 7] | effect on uptake of doxorubicin by tumor cell nuclei (summary statement) ([4]; animals with experimentally induced glioblastoma) | effect on raised intracranial pressure (statement in words) ([2]; mice with experimentally induced glioblastoma) |
| --- | --- | --- | --- | --- | --- | --- | --- | --- | --- | --- | --- | --- | --- | --- | --- | --- |
| C[C@@H](O)[C@H](NC(=O)[C@H](CCCCN)NC(=O)[C@H](CO)NC(=O)[C@H](Cc1c[nH]cn1)NC(=O)[C@@H](N)CS)C(=O)N[C@@H](CCCNC(=N)N)C(=O)O [AF-6, CHSKTR] (H-CHSKTR-OH) | No side effects could be disclosed | No side effects were noticed |  |  |  |  |  |  |  |  |  |  |  |  |  |  |
| VCHSKTRSNPENNVGL (Variant (2)..(2) C may be replaced by S; Variant (3)..(3) H may be replaced by R or K; Variant (4)..(4) S may be replaced by L; Variant (6)..(6) T may be replaced by A) [AF-16, a peptide composed of the amino acids …, fragment of antisecretory factor protein] |  |  | lower the raised intracranial pressure | about 12 minutes | ~20 | 4 to 6 | 15 to 30 | ≤ 20 | resolved | facilitated the uptake and binding of doxorubicin to tumor cell nuclei | strong red staining | a large proportion of these cells were labeled | increased | increased | efficiently improved the uptake | reduced the high intracranial pressure |
